What all share (format): biochemical
Experiment [1] deals with T1, His-tagged full length ARK5 (Homo sapiens, UniProt O60285).
T1 construct: 20 ng His-tagged full length ARK5 (Invitrogen PV4127); His; purchased Invitrogen PV4127
T1 sequence (O60285 1-661): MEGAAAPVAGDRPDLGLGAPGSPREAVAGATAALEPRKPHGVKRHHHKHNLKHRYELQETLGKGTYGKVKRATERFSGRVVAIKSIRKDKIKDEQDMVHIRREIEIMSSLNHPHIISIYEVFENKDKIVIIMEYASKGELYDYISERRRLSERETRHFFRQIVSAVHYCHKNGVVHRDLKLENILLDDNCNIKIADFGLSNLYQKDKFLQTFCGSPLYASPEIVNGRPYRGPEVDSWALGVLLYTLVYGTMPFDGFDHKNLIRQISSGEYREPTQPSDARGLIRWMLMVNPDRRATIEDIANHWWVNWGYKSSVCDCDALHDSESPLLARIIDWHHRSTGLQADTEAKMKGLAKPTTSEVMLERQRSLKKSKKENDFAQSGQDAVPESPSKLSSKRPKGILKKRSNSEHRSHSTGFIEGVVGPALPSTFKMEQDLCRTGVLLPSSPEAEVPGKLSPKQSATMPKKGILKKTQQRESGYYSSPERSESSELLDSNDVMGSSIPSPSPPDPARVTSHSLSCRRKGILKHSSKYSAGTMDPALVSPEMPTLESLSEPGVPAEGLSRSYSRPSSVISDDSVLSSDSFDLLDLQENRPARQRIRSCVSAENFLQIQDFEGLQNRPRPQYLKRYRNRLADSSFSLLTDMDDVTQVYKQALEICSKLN
Nature of the experiment: ARK5 Kinase Assay (ARK5 Inhibition Assay). To be noted: CHKtide substrate, 1 μM ATP. The procedure: 20 ng His-tagged full length ARK5 (Invitrogen PV4127), a protein kinase, was diluted into kinase buffer (25 mM HEPES pH 7.5, 10 mM MgCl2, 0.5 mM EGTA, 0.5 mM Na3V04, 5 mM β Glycerophosphate, 2.5 mM DTT, 0.01% Triton X-100) and incubated with the indicated concentration of a compound of Table 3 at room temperature for 30 minutes. The kinase reactions were then initiated by the addition of 1 μg (3.28 μM) CHKtide substrate peptide (Upstate 12-414), 1 μM ATP and 10 μCi γ^32 P-ATP. The reactions were incubated at 30° C. for 10 minutes.
Subsequently, the reactions were stopped by adding 3% phosphoric acid. A 10 μl aliquot was then transferred to an appropriate area of a p30 filtermat. The filtermat was allowed to dry for 20 minutes at room temperature and then washed three times with 75 mM phosphoric acid and twice with methanol. The filtermat was then dried for 20 minutes at room temperature. The filtermat was then exposed to X ray film or read in a scintillation counter. The scintillation counting values were plotted as function of log drug concentration using Prism 4 Graph pad software and IC50 values determined by plotting sigmoidal non-linear regression curves with variable slope.

The target of experiment [2] is ARK5 (Homo sapiens, UniProt O60285). Kind of experiment: Kinase inhibition panel. The settings on record: 10 μM ATP.
Experiment [3] has as its target c-Kit (Homo sapiens, UniProt P10721). Nature of the experiment: Kinase inhibition panel. The settings on record: 10 μM ATP.
Experiment [4] has as its target FGR (Homo sapiens, UniProt P09769). Kind of experiment: Kinase inhibition panel. The settings on record: 10 μM ATP.
For experiment [5], the target named is PKCmu (Homo sapiens, UniProt Q15139). Kind of experiment: Kinase inhibition panel. The settings on record: 10 μM ATP.
Chain of PKCmu (Q15139 whole entry): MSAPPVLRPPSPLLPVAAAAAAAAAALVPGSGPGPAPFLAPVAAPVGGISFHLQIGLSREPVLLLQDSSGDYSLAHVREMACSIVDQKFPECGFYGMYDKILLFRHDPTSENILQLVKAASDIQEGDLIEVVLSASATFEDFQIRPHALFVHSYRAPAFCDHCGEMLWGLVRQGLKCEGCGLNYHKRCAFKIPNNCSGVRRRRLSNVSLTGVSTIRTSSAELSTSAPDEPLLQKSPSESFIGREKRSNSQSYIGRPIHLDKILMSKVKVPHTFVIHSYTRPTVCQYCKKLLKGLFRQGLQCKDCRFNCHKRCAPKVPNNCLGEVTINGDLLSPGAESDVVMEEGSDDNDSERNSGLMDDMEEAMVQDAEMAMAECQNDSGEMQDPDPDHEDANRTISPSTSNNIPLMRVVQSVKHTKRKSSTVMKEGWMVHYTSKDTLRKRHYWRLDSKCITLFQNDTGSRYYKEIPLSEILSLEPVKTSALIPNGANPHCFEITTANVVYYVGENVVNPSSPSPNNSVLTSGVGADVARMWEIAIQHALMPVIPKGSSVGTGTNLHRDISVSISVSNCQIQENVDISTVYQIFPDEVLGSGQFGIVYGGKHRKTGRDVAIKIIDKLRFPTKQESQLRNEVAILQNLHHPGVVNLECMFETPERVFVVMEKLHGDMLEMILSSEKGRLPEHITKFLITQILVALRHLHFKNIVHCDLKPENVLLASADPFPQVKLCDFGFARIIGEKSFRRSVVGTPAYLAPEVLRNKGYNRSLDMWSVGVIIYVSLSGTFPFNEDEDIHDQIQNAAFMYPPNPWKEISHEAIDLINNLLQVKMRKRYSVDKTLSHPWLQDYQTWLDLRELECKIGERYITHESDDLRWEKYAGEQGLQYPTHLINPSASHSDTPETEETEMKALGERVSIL
The target of experiment [6] is FLT4NEGFR3 (Homo sapiens, UniProt P35916). Kind of experiment: Kinase inhibition panel. To be noted: 10 μM ATP.
Chain of FLT4NEGFR3 (P35916 25-1363): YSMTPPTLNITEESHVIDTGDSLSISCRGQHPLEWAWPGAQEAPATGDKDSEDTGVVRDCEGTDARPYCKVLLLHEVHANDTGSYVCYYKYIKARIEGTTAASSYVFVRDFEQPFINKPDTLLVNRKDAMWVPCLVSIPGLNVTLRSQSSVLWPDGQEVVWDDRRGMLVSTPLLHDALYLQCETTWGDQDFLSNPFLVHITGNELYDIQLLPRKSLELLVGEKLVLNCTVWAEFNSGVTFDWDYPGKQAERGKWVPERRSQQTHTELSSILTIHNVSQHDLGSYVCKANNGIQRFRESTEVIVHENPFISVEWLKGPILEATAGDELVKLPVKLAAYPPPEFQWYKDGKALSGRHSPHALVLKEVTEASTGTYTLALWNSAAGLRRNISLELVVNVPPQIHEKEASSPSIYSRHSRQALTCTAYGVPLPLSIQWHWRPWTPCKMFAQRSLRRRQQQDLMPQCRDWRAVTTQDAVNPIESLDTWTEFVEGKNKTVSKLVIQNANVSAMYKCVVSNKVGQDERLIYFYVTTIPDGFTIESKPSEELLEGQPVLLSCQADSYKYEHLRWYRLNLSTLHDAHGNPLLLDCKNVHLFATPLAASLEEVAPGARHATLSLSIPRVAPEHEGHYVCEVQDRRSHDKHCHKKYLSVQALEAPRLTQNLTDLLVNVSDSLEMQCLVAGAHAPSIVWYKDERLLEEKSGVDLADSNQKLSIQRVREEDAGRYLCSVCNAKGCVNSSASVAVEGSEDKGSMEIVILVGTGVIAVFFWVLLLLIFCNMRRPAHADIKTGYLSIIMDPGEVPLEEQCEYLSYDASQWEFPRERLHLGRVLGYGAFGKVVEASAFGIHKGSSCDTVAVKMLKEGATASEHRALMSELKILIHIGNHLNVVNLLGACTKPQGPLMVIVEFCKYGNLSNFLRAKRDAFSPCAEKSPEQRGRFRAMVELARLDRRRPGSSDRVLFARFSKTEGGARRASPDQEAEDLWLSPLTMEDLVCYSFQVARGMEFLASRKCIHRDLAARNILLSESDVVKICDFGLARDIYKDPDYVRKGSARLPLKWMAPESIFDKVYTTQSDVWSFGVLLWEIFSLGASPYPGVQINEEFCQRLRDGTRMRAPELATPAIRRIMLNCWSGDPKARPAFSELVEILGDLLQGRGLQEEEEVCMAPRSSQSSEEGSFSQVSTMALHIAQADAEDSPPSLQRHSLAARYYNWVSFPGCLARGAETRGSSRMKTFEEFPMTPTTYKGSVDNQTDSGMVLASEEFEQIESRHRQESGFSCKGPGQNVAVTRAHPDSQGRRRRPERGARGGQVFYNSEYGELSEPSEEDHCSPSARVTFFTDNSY
Experiment [7] addresses TTK (Homo sapiens, UniProt P33981). Kind of experiment: Kinase inhibition panel. The settings on record: 10 μM ATP.

Experimental findings from patent US8987267B2, “2-substituted-8-alkyl-7-OXO-7,8-dihydropyrido[2,3-D]pyrimidine-6-carbonitriles and uses thereof in treating proliferative disorders” (Temple University—of the Commonwealth System of Higher …, priority 2010, dated 2015) are described below.

Molecules are shown by their SMILES. A value given as a limit tells only on which side of the number the result lay.

Chain of FGR (P09769 whole entry, species assumed): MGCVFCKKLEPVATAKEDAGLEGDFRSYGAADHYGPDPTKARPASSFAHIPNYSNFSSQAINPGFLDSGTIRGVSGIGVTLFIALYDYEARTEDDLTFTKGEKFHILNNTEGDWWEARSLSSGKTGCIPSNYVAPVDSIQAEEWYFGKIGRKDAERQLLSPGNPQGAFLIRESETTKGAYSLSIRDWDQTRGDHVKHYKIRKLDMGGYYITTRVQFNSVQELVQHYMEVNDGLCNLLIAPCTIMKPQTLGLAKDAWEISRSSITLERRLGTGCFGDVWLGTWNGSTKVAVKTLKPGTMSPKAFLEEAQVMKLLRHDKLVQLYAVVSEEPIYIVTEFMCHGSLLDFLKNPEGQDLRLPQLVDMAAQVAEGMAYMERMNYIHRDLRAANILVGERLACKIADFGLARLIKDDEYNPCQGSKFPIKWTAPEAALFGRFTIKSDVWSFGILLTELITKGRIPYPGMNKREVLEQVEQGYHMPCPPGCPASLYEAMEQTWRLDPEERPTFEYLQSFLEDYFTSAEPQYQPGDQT
Chain of c-Kit (P10721 26-976): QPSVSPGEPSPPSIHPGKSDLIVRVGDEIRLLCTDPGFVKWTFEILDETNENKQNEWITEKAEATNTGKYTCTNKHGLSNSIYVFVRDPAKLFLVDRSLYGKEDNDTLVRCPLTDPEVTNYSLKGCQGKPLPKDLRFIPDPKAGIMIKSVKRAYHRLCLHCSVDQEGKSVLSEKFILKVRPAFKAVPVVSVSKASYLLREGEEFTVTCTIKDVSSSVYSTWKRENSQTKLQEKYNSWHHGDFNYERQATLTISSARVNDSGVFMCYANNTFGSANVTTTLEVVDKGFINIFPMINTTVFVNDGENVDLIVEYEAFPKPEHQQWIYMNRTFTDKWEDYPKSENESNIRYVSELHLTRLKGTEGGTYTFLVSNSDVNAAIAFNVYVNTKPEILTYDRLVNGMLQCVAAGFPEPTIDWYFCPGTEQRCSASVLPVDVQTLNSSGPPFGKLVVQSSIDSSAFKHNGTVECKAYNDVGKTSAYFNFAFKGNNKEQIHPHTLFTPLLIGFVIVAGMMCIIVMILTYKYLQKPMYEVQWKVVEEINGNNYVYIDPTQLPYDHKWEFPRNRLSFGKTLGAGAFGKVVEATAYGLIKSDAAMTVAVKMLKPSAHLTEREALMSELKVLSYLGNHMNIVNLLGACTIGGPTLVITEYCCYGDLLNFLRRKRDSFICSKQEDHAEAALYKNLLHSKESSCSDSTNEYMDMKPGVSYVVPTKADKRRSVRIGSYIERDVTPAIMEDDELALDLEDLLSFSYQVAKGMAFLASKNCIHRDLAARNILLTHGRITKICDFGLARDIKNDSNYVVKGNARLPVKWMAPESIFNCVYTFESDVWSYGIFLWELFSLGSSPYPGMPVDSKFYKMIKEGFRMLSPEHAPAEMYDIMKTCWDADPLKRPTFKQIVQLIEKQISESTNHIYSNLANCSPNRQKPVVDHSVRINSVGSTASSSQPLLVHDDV
Chain of TTK (P33981 whole entry, species assumed): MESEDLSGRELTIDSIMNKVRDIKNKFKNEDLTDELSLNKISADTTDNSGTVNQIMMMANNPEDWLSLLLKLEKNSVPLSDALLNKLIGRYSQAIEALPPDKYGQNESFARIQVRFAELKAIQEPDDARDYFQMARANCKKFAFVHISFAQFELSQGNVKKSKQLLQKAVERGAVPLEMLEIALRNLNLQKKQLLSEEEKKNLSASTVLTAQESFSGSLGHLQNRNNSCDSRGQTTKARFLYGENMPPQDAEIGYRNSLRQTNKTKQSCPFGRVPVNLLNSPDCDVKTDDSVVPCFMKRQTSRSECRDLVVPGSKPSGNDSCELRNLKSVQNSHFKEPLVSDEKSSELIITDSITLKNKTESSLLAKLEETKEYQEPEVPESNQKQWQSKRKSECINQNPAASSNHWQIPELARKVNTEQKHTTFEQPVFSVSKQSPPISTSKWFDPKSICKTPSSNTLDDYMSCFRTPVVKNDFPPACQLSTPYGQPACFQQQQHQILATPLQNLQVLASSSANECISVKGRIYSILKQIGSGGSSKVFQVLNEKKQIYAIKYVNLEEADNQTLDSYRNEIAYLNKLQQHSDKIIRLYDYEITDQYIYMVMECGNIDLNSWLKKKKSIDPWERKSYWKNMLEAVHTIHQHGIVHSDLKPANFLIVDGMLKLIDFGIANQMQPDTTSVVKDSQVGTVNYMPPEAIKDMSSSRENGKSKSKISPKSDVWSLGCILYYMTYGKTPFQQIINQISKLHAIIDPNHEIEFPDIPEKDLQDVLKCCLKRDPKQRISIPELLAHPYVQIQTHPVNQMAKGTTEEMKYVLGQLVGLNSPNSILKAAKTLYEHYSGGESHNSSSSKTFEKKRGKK

On to `CN1CCN(c2ccc(Nc3ncc4cc(S(C)(=O)=O)c(=O)n(C5CCCC5)c4n3)cc2)CC1` [Comp. Ex. 1, 8-cyclopentyl-2-((4-(4-methylpiperazin-1-yl)phenyl)amino)-6-(methylsulfonyl)pyrido[2,3-d]pyrimidin-7(8H)-one, reference compound], for which the half-maximal inhibitory concentration (IC50) (commonly the midpoint of a concentration-inhibition curve) in experiment [1] is more than 10000 nM.

With `COc1cc(Nc2ncc3cc(C#N)c(=O)n(C4CCCC4)c3n2)cc(OC)c1OC` [Compound 15, 8-cyclopentyl-7-oxo-2-((3,4,5-trimethoxyphenyl)amino)-7,8-dihydropyrido[2,3-d]pyrimidine-6-carbonitrile], the IC50 in experiment [1] is 49.8 nM.

With `CN1CCN(c2ccc(Nc3ncc4cc(C#N)c(=O)n(C5CCCCC5)c4n3)cc2)CC1` [Compound 16, 8-cyclohexyl-2-((4-(4-methylpiperazin-1-yl)phenyl)amino)-7-oxo-7,8-dihydropyrido[2,3-d]pyrimidine-6-carbonitrile], half-maximal inhibition in experiment [1] (IC50) required 43.4 nM.

`COc1cc(Nc2ncc3cc(C#N)c(=O)n(C4CCCC4)c3n2)cc(OC)c1` [Compound 14, 8-cyclopentyl-2-((3,5-dimethoxyphenyl)amino)-7-oxo-7,8-dihydropyrido[2,3-d]pyrimidine-6-carbonitrile] showed an IC50 in experiment [1] of 75 nM.

As to `CC(=O)c1c(C)c2cnc(Nc3ccc(N4CCNCC4)cn3)nc2n(C2CCCC2)c1=O` [PD0332991, reference compound], the IC50 in experiment [2] is 3.39 µM; in experiment [3] it was more than 10 µM; in experiment [4], more than 10 µM; in experiment [5] it was 126 nM; in experiment [6] it was more than 10 µM; in experiment [7] it was 697 nM.

Compound `N#Cc1cc2cnc(Nc3ccc(N4CCOCC4)cc3)nc2n(C2CCCC2)c1=O` [Compound 13, 8-cyclopentyl-2-((4-morpholinophenyl)amino)-7-oxo-7,8-dihydropyrido[2,3-d]pyrimidine-6-carbonitrile] gave an IC50 in experiment [1] of 75 nM.

`COc1ccc(Nc2ncc3ccc(=O)n(C4CCCC4)c3n2)c(OC)c1` [Comp. Ex. 5, 8-cyclopentyl-2-((2,4-dimethoxyphenyl)amino)pyrido[2,3-d]pyrimidin-7(8H)-one, reference compound]: in experiment [1], the IC50 was more than 5000 nM.

As for `CN1CCN(c2ccc(Nc3ncc4cc(S(=O)(=O)c5ccc(Cl)cc5)c(=O)n(C5CCCC5)c4n3)cc2)CC1` [Comp. Ex. 2, 6-((4-chlorophenyl)sulfonyl)-8-cyclopentyl-2-((4-(4-methylpiperazin-1-yl)phenyl)amino)pyrido[2,3-d]pyrimidin-7(8H)-one, reference compound], the IC50 in experiment [1] is more than 10000 nM.

Turning to `COc1ccc(Nc2ncc3ccc(=O)n(C4CCCC4)c3n2)cc1OC` [Comp. Ex. 4, 8-cyclopentyl-2-((3,4-dimethoxyphenyl)amino)pyrido[2,3-d]pyrimidin-7(8H)-one, reference compound], the IC50 in experiment [1] was more than 1000 nM.
